Laboratory results as given in patent US9604975B2, “Indolyl-pyridone derivatives having checkpoint kinase 1 inhibitory activity” (Vernalis (R&D) Ltd., priority 2009, dated 2017).

Molecular target: T1, CHK1 (Homo sapiens, UniProt O14757)
T1 construct: His; purchased Invitrogen
T1 sequence (O14757 1-476): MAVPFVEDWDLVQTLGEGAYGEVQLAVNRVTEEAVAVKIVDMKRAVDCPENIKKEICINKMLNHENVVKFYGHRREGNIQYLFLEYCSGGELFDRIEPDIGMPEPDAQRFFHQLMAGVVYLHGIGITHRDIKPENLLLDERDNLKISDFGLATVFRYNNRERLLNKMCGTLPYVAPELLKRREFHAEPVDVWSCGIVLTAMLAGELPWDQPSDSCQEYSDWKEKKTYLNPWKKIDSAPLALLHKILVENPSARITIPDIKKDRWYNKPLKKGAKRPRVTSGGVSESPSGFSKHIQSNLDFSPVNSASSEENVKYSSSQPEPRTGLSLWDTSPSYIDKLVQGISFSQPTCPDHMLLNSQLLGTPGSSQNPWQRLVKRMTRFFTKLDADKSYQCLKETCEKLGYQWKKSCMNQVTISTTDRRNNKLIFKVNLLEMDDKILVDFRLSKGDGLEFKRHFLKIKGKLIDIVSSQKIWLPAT
Assay: CHK1 Enzyme Assay (phosphorylation of Chktide peptide, 33P-ATP filter assay)
Format: biochemical
Settings: 12.5 nM His-CHK1, 0.01 mM ATP, 40 minutes at 30° C.; read-out: CHK1 Enzyme Activity (IC50 range)
Procedure: Assays for the CHK1 kinase activity were carried out by monitoring the phosphorylation of a synthetic peptide Chktide with the amino acid sequence, […]. The assay mixture containing the inhibitor and CHK1 enzyme was mixed together in a microtiter plate in a final volume of 50 μl and incubated for 40 minutes at 30° C.
The assay mixture contained 0.01 mM unlabeled ATP, 0.5 μCi ^33P-γ-ATP, 14.8 μM Chktide, 0.1 mg/mL BSA, 50 mM Hepes-NaOH pH 7.5 and 12.5 nM His-CHK1 (Invitrogen) enzyme. The reaction was stopped by adding 50 μL of 50 mM phosphoric acid. 90 μL of the mixture was transferred to a pre-wetted 96-well multi-screen MAPHNOB filtration plate (Millipore) and filtered on a vacuum manifold. The filter plate was washed with 3 successive additions of 200 μl 50 mM phosphoric acid and then with 100 μL methanol. The filtration plate was dried for 10 min at 65° C., scintillant added and phosphorylated peptide quantified in a scintillation counter (Trilux, PerkinElmer).

Row | IC50 [µM] | Structure (SMILES)
1 | 0.1 to 0.5 | Cc1[nH]c(=O)c(-c2cc3ccccc3[nH]2)cc1NC(=O)c1cnn(Cc2cccc(F)c2)c1 [Example 30, 1-(3-Fluoro-benzyl)-1H-pyrazole-4-carboxylic acid [5-(1H-indol-2-yl)-2-methyl-6-oxo-1,6-dihydro-pyridin-3-yl]-amide]
2 | < 0.1 | Cc1[nH]c(=O)c(-c2cc3ccccc3[nH]2)cc1NC(=O)c1cnn(Cc2ccccc2)c1 [Example 31, 1-Benzyl-1H-pyrazole-4-carboxylic acid [5-(1H-indol-2-yl)-2-methyl-6-oxo-1,6-dihydro-pyridin-3-yl]-amide]
3 | 0.5 to 1.5 | O=C(Nc1cnn(CC2CCCCC2)c1)c1c[nH]c(=O)c(-c2cc3ccccc3[nH]2)c1 [Example 34, 5-(1H-Indol-2-yl)-6-oxo-1,6-dihydro-pyridine-3-carboxylic acid (1-cyclohexylmethyl-1H-pyrazol-4-yl)-amide]
4 | < 0.1 | O=C(Nc1cnn(Cc2cccnc2)c1)c1c[nH]c(=O)c(-c2cc3ccccc3[nH]2)c1 [Example 35, 5-(1H-Indol-2-yl)-6-oxo-1,6-dihydro-pyridine-3-carboxylic acid (1-pyridin-3-ylmethyl-1H-pyrazol-4-yl)-amide]
5 | < 0.1 | Cc1ccc(Cn2cc(C(=O)Nc3c[nH]c(=O)c(-c4cc5cc(CN6CCC(CO)CC6)ccc5[nH]4)c3)cn2)cc1 [Example 39, 1-(4-Methyl-benzyl)-1H-pyrazole-4-carboxylic acid {5-[5-(4-hydroxymethyl-piperidin-1-ylmethyl)-1H-indol-2-yl]-6-oxo-1,6-dihydro-pyridin-3-yl}-amide]
6 | < 0.1 | Cc1ccc(Cn2cc(C(=O)Nc3c[nH]c(=O)c(-c4cc5cc(CN6CCCC6)ccc5[nH]4)c3)cn2)cc1 [Example 41, 1-(4-Methyl-benzyl)-1H-pyrazole-4-carboxylic acid [6-oxo-5-(5-pyrrolidin-1-ylmethyl-1H-indol-2-yl)-1,6-dihydro-pyridin-3-yl]-amide]
7 | < 0.1 | Cc1ccc(Cn2cc(C(=O)Nc3c[nH]c(=O)c(-c4cc5cc(CN6CC(O)C6)ccc5[nH]4)c3)cn2)cc1 [Example 42, 1-(4-Methyl-benzyl)-1H-pyrazole-4-carboxylic acid {5-[5-(3-hydroxy-azetidin-1-ylmethyl)-1H-indol-2-yl]-6-oxo-1,6-dihydro-pyridin-3-yl}-amide]
8 | < 0.1 | O=C(Nc1c[nH]c(=O)c(-c2cc3cc(CN4CCCCC4)ccc3[nH]2)c1)c1cnn(Cc2ccc(Cl)cc2)c1 [Example 44, 1-(4-Chloro-benzyl)-1H-pyrazole-4-carboxylic acid [6-oxo-5-(5-piperidin-1-ylmethyl-1H-indol-2-yl)-1,6-dihydro-pyridin-3-yl]-amide]
9 | < 0.1 | CCN(CCO)Cc1ccc2[nH]c(-c3cc(NC(=O)c4cnn(Cc5ccc(Cl)cc5)c4)c[nH]c3=O)cc2c1 [Example 45, 1-(4-Chloro-benzyl)-1H-pyrazole-4-carboxylic acid [5-(5-{[ethyl-(2-hydroxy-ethyl)-amino]-methyl}-1H-indol-2-yl)-6-oxo-1,6-dihydro-pyridin-3-yl]-amide]
10 | < 0.1 | O=C(Nc1c[nH]c(=O)c(-c2cc3cc(CNCCO)ccc3[nH]2)c1)c1cnn(Cc2ccc(Cl)cc2)c1 [Example 46, 1-(4-Chloro-benzyl)-1H-pyrazole-4-carboxylic acid (5-{5-[(2-hydroxy-ethylamino)-methyl]-1H-indol-2-yl}-6-oxo-1,6-dihydro-pyridin-3-yl)-amide]
11 | < 0.1 | O=C(Nc1c[nH]c(=O)c(-c2cc3cc(CN4CCCC4)ccc3[nH]2)c1)c1cnn(Cc2ccccc2)c1 [Example 50, 1-Benzyl-1H-pyrazole-4-carboxylic acid [6-oxo-5-(5-pyrrolidin-1-ylmethyl-1H-indol-2-yl)-1,6-dihydro-pyridin-3-yl]-amide]
12 | < 0.1 | O=C(Nc1c[nH]c(=O)c(-c2cc3cc(CN4CCOCC4)ccc3[nH]2)c1)c1cnn(Cc2ccccc2)c1 [Example 51, 1-Benzyl-1H-pyrazole-4-carboxylic acid [5-(5-morpholin-4-ylmethyl-1H-indol-2-yl)-6-oxo-1,6-dihydro-pyridin-3-yl]-amide]
13 | < 0.1 | CN1CCN(Cc2ccc3[nH]c(-c4cc(NC(=O)c5cnn(Cc6ccc(Cl)cc6)c5)c[nH]c4=O)cc3c2)CC1 [Example 53, 1-(4-Chloro-benzyl)-1H-pyrazole-4-carboxylic acid {5-[5-(4-methyl-piperazin-1-ylmethyl)-1H-indol-2-yl]-6-oxo-1,6-dihydro-pyridin-3-yl}-amide]
14 | < 0.1 | O=C(Nc1c[nH]c(=O)c(-c2cc3cc(CN4CCCC4)ccc3[nH]2)c1)c1cnn(Cc2ccc(Cl)cc2)c1 [Example 55, 1-(4-Chloro-benzyl)-1H-pyrazole-4-carboxylic acid [6-oxo-5-(5-pyrrolidin-1-ylmethyl-1H-indol-2-yl)-1,6-dihydro-pyridin-3-yl]-amide]
15 | < 0.1 | CCN(CCO)Cc1ccc2[nH]c(-c3cc(NC(=O)c4cnn(Cc5ccccc5)c4)c[nH]c3=O)cc2c1 [Example 56, 1-Benzyl-1H-pyrazole-4-carboxylic acid [5-(5-{[ethyl-(2-hydroxy-ethyl)-amino]-methyl}-1H-indol-2-yl)-6-oxo-1,6-dihydro-pyridin-3-yl]-amide]

Further lines, the compound ahead of its results:

Row | Structure (SMILES) | IC50 [µM]
16 | Cc1[nH]c(=O)c(-c2cc3ccccc3[nH]2)cc1NC(=O)c1cnn(Cc2ccc(F)cc2)c1 [Example 32, 1-(4-Fluoro-benzyl)-1H-pyrazole-4-carboxylic acid [5-(1H-indol-2-yl)-2-methyl-6-oxo-1,6-dihydro-pyridin-3-yl]-amide] | 0.1 to 0.5
17 | Cc1[nH]c(=O)c(-c2cc3ccccc3[nH]2)cc1NC(=O)c1cnn(Cc2ccc(F)c(F)c2)c1 [Example 33, 1-(3,4-Difluoro-benzyl)-1H-pyrazole-4-carboxylic acid [5-(1H-indol-2-yl)-2-methyl-6-oxo-1,6-dihydro-pyridin-3-yl]-amide] | 0.1 to 0.5
18 | O=C(Nc1cnn(Cc2ccncc2)c1)c1c[nH]c(=O)c(-c2cc3ccccc3[nH]2)c1 [Example 36, 5-(1H-Indol-2-yl)-6-oxo-1,6-dihydro-pyridine-3-carboxylic acid (1-pyridin-4-ylmethyl-1H-pyrazol-4-yl)-amide] | 0.1 to 0.5
19 | Cc1ccc(Cn2cc(C(=O)Nc3c[nH]c(=O)c(-c4cc5cc(CN6CCC(F)CC6)ccc5[nH]4)c3)cn2)cc1 [Example 37, 1-(4-Methyl-benzyl)-1H-pyrazole-4-carboxylic acid {5-[5-(4-fluoro-piperidin-1-ylmethyl)-1H-indol-2-yl]-6-oxo-1,6-dihydro-pyridin-3-yl}-amide] | < 0.1
20 | Cc1ccc(Cn2cc(C(=O)Nc3c[nH]c(=O)c(-c4cc5cc(CN6CCOCC6)ccc5[nH]4)c3)cn2)cc1 [Example 40, 1-(4-Methyl-benzyl)-1H-pyrazole-4-carboxylic acid [5-(5-morpholin-4-ylmethyl-1H-indol-2-yl)-6-oxo-1,6-dihydro-pyridin-3-yl]-amide] | < 0.1
21 | Cc1ccc(Cn2cc(C(=O)Nc3c[nH]c(=O)c(-c4cc5cc(CN(C)CCO)ccc5[nH]4)c3)cn2)cc1 [Example 43, 1-(4-Methyl-benzyl)-1H-pyrazole-4-carboxylic acid [5-(5-{[(2-hydroxy-ethyl)-methyl-amino]-methyl}-1H-indol-2-yl)-6-oxo-1,6-dihydro-pyridin-3-yl]-amide] | < 0.1
22 | O=C(Nc1c[nH]c(=O)c(-c2cc3cc(CN4CCC(F)CC4)ccc3[nH]2)c1)c1cnn(Cc2ccc(Cl)cc2)c1 [Example 47, 1-(4-Chloro-benzyl)-1H-pyrazole-4-carboxylic acid {5-[5-(4-fluoro-piperidin-1-ylmethyl)-1H-indol-2-yl]-6-oxo-1,6-dihydro-pyridin-3-yl}-amide] | < 0.1
23 | O=C(Nc1c[nH]c(=O)c(-c2cc3cc(CN4CCC(O)CC4)ccc3[nH]2)c1)c1cnn(Cc2ccc(Cl)cc2)c1 [Example 48, 1-(4-Chloro-benzyl)-1H-pyrazole-4-carboxylic acid {5-[5-(4-hydroxy-piperidin-1-ylmethyl)-1H-indol-2-yl]-6-oxo-1,6-dihydro-pyridin-3-yl}-amide] | < 0.1
24 | Cc1ccc(Cn2cc(C(=O)Nc3c[nH]c(=O)c(-c4cc5cc(CNCCO)ccc5[nH]4)c3)cn2)cc1 [Example 54, 1-(4-Methyl-benzyl)-1H-pyrazole-4-carboxylic acid {5-[5-[(2-hydroxy-ethylamino)-methyl]-1H-indol-2-yl}-6-oxo-1,6-dihydro-pyridin-3-yl]-amide] | < 0.1
25 | O=C(Nc1c[nH]c(=O)c(-c2cc3cc(CN4CCCC(F)C4)ccc3[nH]2)c1)c1cnn(Cc2ccccc2)c1 (stereo not shown) [Example 57, 1-Benzyl-1H-pyrazole-4-carboxylic acid {5-[5-(3-fluoro-piperidin-1-ylmethyl)-1H-indol-2-yl]-6-oxo-1,6-dihydro-pyridin-3-yl}-amide] | < 0.1
